Measurements as given in patent publication US4948880A, “Anthracycline derivatives having cytostatic activity” (Behringwerke Aktiengesellschaft, priority 1986, dated 1990).
Converted amounts (≈) assume the structure as drawn. Counter-ions that a name gives are not always drawn. Like-named read-outs stand apart in the source and are kept apart here.

Tested on: mouse L1210 leukemia cells
Test: Formation of L1210 leukemia cell colonies in soft agar (cytostatic activity)
Assay type: cell-based
Settings: colonies > 60 μm, % of untreated control; for IC50: Mus musculus
Method: The cytostatic activity of the compounds according to the invention have been tested using mouse L1210 leukemia cells. Use was made for this by the formation of L1210 leukemia cell colonies in agar plates. This method is used to detect the effect of the test substances on the growth behavior of the cells over 1 hour or over several generations. In this connection, with a cell cycle time of 10-12 hours, about 14 consecutive generations are observed in a 7-day duration of the test. In this test, the substances having cytostatic activity according to the invention bring about a reduction, compared with an untreated control sample, in the number of colonies which is to be observed.
Procedure for Determining the Formation of L1210 Leukemia Cell Colonies in Soft Agar
500 leukemia cells per plate were incubated with various concentrations of the test substance at 37° C. for 1 hour. These cells were then washed twice with McCoy 5A medium, 0.3% agar was added, and finally the mixture was poured into Petri dishes. Controls were incubated only with fresh medium. In place of the incubation for one hour, in some cases various concentrations and test substances were mixed with the upper agar layer in order in this way to achieve continuous exposure of the cells throughout the incubation time. After the agar had solidified, the plates were incubated in an incubator at 37° C. for 7 days (5% by volume CO2, 95% relative atmospheric humidity). Thereafter the number of colonies with a diameter of more than 60 μm which had formed was counted. The results have been stated as the number of colonies in treated agar plates as a percentage of the untreated control. The dose-effect graph obtained in this way was used to determine the IC50 as a measure of the activity of the substance. The results for the compounds described here are compiled in Table 1 which follows, comparing with adriamycin.

[1] = L1210, 168 h, continuous exposure, test substance mixed with upper agar layer, 7 days, 37° C., read-out: Continuous incubation IC50
[2] = L1210, 1 hour incubation with test substance at 37° C., then washed, 7 days in agar, read-out: 1 h incubation IC50
[3] = L1210, 168 h, read-out: Continuous incubation IC50, continuous exposure, test substance mixed with upper agar layer, 7 days, 37° C.
[4] = L1210, read-out: 1 h incubation IC50, 1 hour incubation with test substance at 37° C., then washed, 7 days in agar

IC50 [1] | IC50 [2] | Structure (SMILES) | IC50 [3] | IC50 [4] | 1 h incubation IC50 (1 hour incubation with test substance at 37° C., then washed, 7 days in agar, hydrochloride)
0.075 µg/mL (≈ 0.125 µM) | 0.48 µg/mL (≈ 0.8 µM) | CCCCCN(C)[C@H]1C[C@H](O[C@H]2C[C@](O)(CC)[C@H](O)c3c(O)c4c(c(O)c32)C(=O)c2c(O)cccc2C4=O)O[C@@H](C)[C@H]1O [compound 18, 7-O-(3'-N-Methyl-3'-N-pentyl-α-L-daunosaminyl)-β-rhodomycinone] |  |  | 
0.5 µg/mL (≈ 0.794 µM) | > 1 µg/mL | CC[C@@]1(O)C[C@H](O[C@H]2C[C@H](N(C)C(C)=O)[C@H](O)[C@H](C)O2)c2c(O)c3c(c(O)c2[C@H]1C(=O)OC)C(=O)c1c(O)ccc(O)c1C3=O [compound 14, 7-O-(3'-N-Acetyl-3'-N-methyl-α-L-daunosaminyl)-ε-isorhodomycinone] |  |  | 
> 1 µg/mL | > 1 µg/mL | CC[C@@]1(O)C[C@H](O[C@H]2C[C@H](NC)[C@H](O)[C@H](C)O2)c2c(O)c3c(c(O)c2[C@H]1O[C@H]1C[C@H](NC)[C@H](O)[C@H](C)O1)C(=O)c1cccc(O)c1C3=O [compound 15, 7,10-O-bis-(3'-N-Methyl-α-L-daunosaminyl)-β-rhodomycinone] |  |  | 
0.026 µg/mL (≈ 0.0397 µM) | 0.95 µg/mL (≈ 1.45 µM) | CC[C@@]1(O)C[C@H](O[C@H]2C[C@H](N(C)Cc3ccc(Cl)cc3)[C@H](O)[C@H](C)O2)c2c(O)c3c(c(O)c2[C@H]1O)C(=O)c1cccc(O)c1C3=O [compound 22, 7-O-(3'-N-(4-Chlorobenzyl)-3'-N-methyl-α-L-daunosaminyl)-β-rhodomycinone] |  |  | 
0.026 µg/mL (≈ 0.0455 µM) | 0.1 µg/mL (≈ 0.175 µM) | CCCN(C)[C@H]1C[C@H](O[C@H]2C[C@](O)(CC)[C@H](O)c3c(O)c4c(c(O)c32)C(=O)c2c(O)cccc2C4=O)O[C@@H](C)[C@H]1O [compound 12, 7-O-(3'-N-Methyl-3'-N-propyl-α-L-daunosaminyl)-β-rhodomycinone] |  |  | 
0.028 µg/mL (≈ 0.0452 µM) | 0.32 µg/mL (≈ 0.516 µM) | CC[C@@]1(O)C[C@H](O[C@H]2C[C@H](N(C)Cc3ccccc3)[C@H](O)[C@H](C)O2)c2c(O)c3c(c(O)c2[C@H]1O)C(=O)c1cccc(O)c1C3=O [compound 9, 7-O-(3'-N-Benzyl-3'-N-methyl-α-L-daunosaminyl)-β-rhodomycinone] |  |  | 
0.46 µg/mL (≈ 0.717 µM) | 2.8 µg/mL (≈ 4.36 µM) | CCCCCCCCN(C)[C@H]1C[C@H](O[C@H]2C[C@](O)(CC)[C@H](O)c3c(O)c4c(c(O)c32)C(=O)c2c(O)cccc2C4=O)O[C@@H](C)[C@H]1O [compound 21, 7-O-(3'-N-Octyl-3'-N-methyl-α-L-daunosaminyl)-β-rhodomycinone] |  |  | 
0.0065 µg/mL (≈ 0.00762 µM) | 0.12 µg/mL (≈ 0.141 µM) | CC[C@@]1(O)C[C@H](O[C@H]2C[C@H](N(C)Cc3ccccc3)[C@H](O)[C@H](C)O2)c2c(O)c3c(c(O)c2[C@H]1O[C@H]1C[C@H](N(C)Cc2ccccc2)[C@H](O)[C@H](C)O1)C(=O)c1cccc(O)c1C3=O [compound 28, 7,10-O-bis-(3'-N-Benzyl-3'-N-methyl-α-L-daunosaminyl)-β-rhodomycinone] |  |  | 
0.08 µg/mL (≈ 0.115 µM) | > 1 µg/mL | CC[C@@]1(O)C[C@H](O[C@H]2C[C@H](N(C)Cc3ccc(Br)cc3)[C@H](O)[C@H](C)O2)c2c(O)c3c(c(O)c2[C@H]1O)C(=O)c1cccc(O)c1C3=O [compound 23, 7-O-(3'-N-(4-Bromobenzyl)-3'-N-methyl-α-L-daunosaminyl)-β-rhodomycinone] |  |  | 
0.5 µg/mL (≈ 0.92 µM) | 1.3 µg/mL (≈ 2.39 µM) | CN[C@H]1C[C@H](O[C@H]2C[C@](O)(C(C)O)Cc3c(O)c4c(c(O)c32)C(=O)c2c(OC)cccc2C4=O)O[C@@H](C)[C@H]1O (stereo partly shown) [compound 32, 3'-N-Methyl-13-dihydrodaunorubicin] |  |  | 
0.11 µg/mL (≈ 0.202 µM) | 0.13 µg/mL (≈ 0.238 µM) | CC[C@@]1(O)C[C@H](O[C@H]2C[C@H](NC)[C@H](O)[C@H](C)O2)c2c(O)c3c(c(O)c2[C@H]1O)C(=O)c1c(O)ccc(O)c1C3=O [compound 3, 7-O-(3'-N-Methyl-α-L-daunosaminyl)-β-isorhodomycinone] |  |  | 

Continued, compound first:

Structure (SMILES) | IC50 [1] | IC50 [2] | IC50 [3] | IC50 [4] | 1 h incubation IC50 (1 hour incubation with test substance at 37° C., then washed, 7 days in agar, hydrochloride)
CC[C@@]1(O)C[C@H](O[C@H]2C[C@H](N(C)CC#N)[C@H](O)[C@H](C)O2)c2c(O)c3c(c(O)c2[C@H]1O)C(=O)c1cccc(O)c1C3=O [compound 7, 7-O-(3'-N-Cyanomethyl-3'-N-methyl-α-L-daunosaminyl)-β-rhodomycinone] |  |  | 0.013 µg/mL (≈ 0.0229 µM) | 0.021 µg/mL (≈ 0.0369 µM) | 
CC[C@@]1(O)C[C@H](O[C@H]2C[C@H](N(C)C=O)[C@H](O)[C@H](C)O2)c2c(O)c3c(c(O)c2[C@H]1O)C(=O)c1cccc(O)c1C3=O [compound 6, 7-O-(3'-N-Formyl-3'-N-methyl-α-L-daunosaminyl)-β-rhodomycinone] |  |  | 0.044 µg/mL (≈ 0.0789 µM) | 0.15 µg/mL (≈ 0.269 µM) | 
CCCCCN(C)[C@H]1C[C@H](O[C@H]2C[C@](O)(CC)[C@H](O[C@H]3C[C@H](N(C)CCCCC)[C@H](O)[C@H](C)O3)c3c(O)c4c(c(O)c32)C(=O)c2c(O)cccc2C4=O)O[C@@H](C)[C@H]1O [compound 29, 7,10-O-bis-(3'-N-Methyl-3'-N-pentyl-α-L-daunosaminyl)-β-rhodomycinone] | 0.1 µg/mL (≈ 0.123 µM) | 0.6 µg/mL (≈ 0.738 µM) |  |  | 
CC[C@@]1(O)C[C@H](O[C@H]2C[C@H](NC)[C@H](O)[C@H](C)O2)c2c(O)c3c(c(O)c2[C@H]1O)C(=O)c1cccc(O)c1C3=O [compound 2, 7-O-(3'-N-Methyl-α-L-daunosaminyl)-β-rhodomycinone hydrochloride] |  |  |  |  | 0.026 µg/mL
CC[C@@]1(O)C[C@H](O[C@H]2C[C@H](NC)[C@H](O)[C@H](C)O2)c2c(O)c3c(c(O)c2[C@H]1O)C(=O)c1cccc(O)c1C3=O [compound 1, 7-O-(3'-N-Methyl-α-L-daunosaminyl)-β-rhodomycinone] |  |  | 0.02 µg/mL (≈ 0.0378 µM) | 0.038 µg/mL (≈ 0.0718 µM) | 
CC[C@@]1(O)C[C@H](O[C@H]2C[C@H](N(C)Cc3ccc([N+](=O)[O-])cc3)[C@H](O)[C@H](C)O2)c2c(O)c3c(c(O)c2[C@H]1O)C(=O)c1cccc(O)c1C3=O [compound 24, 7-O-(3'-N-(4-Nitrobenzyl)-3'-N-methyl-α-L-daunosaminyl)-β-rhodomycinone] |  |  | 0.16 µg/mL (≈ 0.241 µM) | 2.5 µg/mL (≈ 3.76 µM) | 
CCN(C)[C@H]1C[C@H](O[C@H]2C[C@](O)(CC)[C@H](O)c3c(O)c4c(c(O)c32)C(=O)c2c(O)cccc2C4=O)O[C@@H](C)[C@H]1O [compound 11] | 0.007 µg/mL (≈ 0.0126 µM) | 0.08 µg/mL (≈ 0.143 µM) |  |  | 
CC[C@@]1(O)C[C@H](O[C@H]2C[C@H](N(C)Cc3ccc(C#N)cc3)[C@H](O)[C@H](C)O2)c2c(O)c3c(c(O)c2[C@H]1O)C(=O)c1cccc(O)c1C3=O [compound 25, 7-O-(3'-N-(4-Cyanobenzyl)-3'-N-methyl-α-L-daunosaminyl)-β-rhodomycinone] |  |  | 0.11 µg/mL (≈ 0.171 µM) | > 1 µg/mL | 
CCCCCN(C)[C@H]1C[C@H](O[C@H]2C[C@](O)(CC)[C@H](O)c3c(O)c4c(c(O)c32)C(=O)c2c(O)ccc(O)c2C4=O)O[C@@H](C)[C@H]1O [compound 27, 7-O-(3'-N-Methyl-3'-N-pentyl-α-L-daunosaminyl)-β-isorhodomycinone] | 0.06 µg/mL (≈ 0.0975 µM) | > 1 µg/mL |  |  | 
CC[C@@]1(O)C[C@H](O[C@H]2C[C@H](NC)[C@H](O)[C@H](C)O2)c2c(O)c3c(c(O)c2[C@H]1C(=O)OC)C(=O)c1c(O)ccc(O)c1C3=O [compound 5, 7-O-(3'-N-Methyl-α-L-daunosaminyl)-ε-isorhodomycinone] | 0.28 µg/mL (≈ 0.477 µM) | > 1 µg/mL |  |  | 
CC[C@@]1(O)C[C@H](O[C@H]2C[C@H](N(C)CC#N)[C@H](O)[C@H](C)O2)c2c(O)c3c(c(O)c2[C@H]1O)C(=O)c1c(O)ccc(O)c1C3=O [compound 8, 7-O-(3'-N-Cyanomethyl-3'-N-methyl-α-L-daunosaminyl)-β-isorhodomycinone] |  |  | 0.042 µg/mL (≈ 0.0718 µM) | 0.2 µg/mL (≈ 0.342 µM) | 
CCCCCCCN(C)[C@H]1C[C@H](O[C@H]2C[C@](O)(CC)[C@H](O)c3c(O)c4c(c(O)c32)C(=O)c2c(O)cccc2C4=O)O[C@@H](C)[C@H]1O [compound 20, 7-O-(3'-N-Heptyl-3'-N-methyl-α-L-daunosaminyl)-β-rhodomycinone] | 0.38 µg/mL (≈ 0.605 µM) | 1.9 µg/mL (≈ 3.03 µM) |  |  | 
CCCCN(C)[C@H]1C[C@H](O[C@H]2C[C@](O)(CC)[C@H](O)c3c(O)c4c(c(O)c32)C(=O)c2c(O)cccc2C4=O)O[C@@H](C)[C@H]1O [compound 13, 7-O-(3'-N-Butyl-3'-N-methyl-α-L-daunosaminyl)-β-rhodomycinone] | 0.018 µg/mL (≈ 0.0307 µM) | 0.125 µg/mL (≈ 0.213 µM) |  |  | 
CCCCCCN(C)[C@H]1C[C@H](O[C@H]2C[C@](O)(CC)[C@H](O)c3c(O)c4c(c(O)c32)C(=O)c2c(O)cccc2C4=O)O[C@@H](C)[C@H]1O [compound 19, 7-O-(3'-N-Hexyl-3'-N-methyl-α-L-daunosaminyl)-β-rhodomycinone] | 0.13 µg/mL (≈ 0.212 µM) | 1.2 µg/mL (≈ 1.96 µM) |  |  | 
